For 50 molecules, IC50 results are on record in US8871934B2, “Fluorene compound and pharmaceutical use thereof” (Japan Tobacco Inc., priority 2008, dated 2014).

pIC50: −log10 of the molar value. Like-named read-outs stand apart in the source and are kept apart here. A value given as a limit tells only on which side of the number the result lay.

The experiment has as its target human PDHK2 (hPDHK2) (Homo sapiens (Human), UniProt Q15119). The experiment is described as follows: Inhibitory action of PDHK activity in vitro (kinase reaction, residual PDH activity measured). Format: biochemical.
The mark [1] stands for this setting: PDHK inhibitory activity, class symbol of IC50.
The mark [2] stands for this setting: read-out: PDHK inhibitory activity IC50.
Setting [3] is: PDHK inhibitory activity (class symbol).

Turning to `CC(C)NC(=O)c1ccc2c(c1)-c1ccccc1C2(O)C(F)(F)F` (stereo not shown) [compound 73], the pIC50 is, setting by setting: under setting [1], less than 6.00; under setting [2], 5.32.

On to `OC1(C(F)(F)F)c2ccccc2-c2ccc(OC3CCCC3)cc21` (stereo not shown) [compound 259], for which the pIC50 is less than 6.00 under setting [1] and 5.86 under setting [2].

As to `Cc1cc(-c2cnn(CCO)c2)c2c(c1)C(O)(C(F)(F)F)c1ccccc1-2` (stereo not shown) [compound 492], the pIC50 under setting [1] was more than 7.00 and the pIC50 under setting [2] is 7.40.

Consider `NC(=O)CCn1cc(-c2cc(Cl)c3c(c2)C(O)(C(F)(F)F)c2ccccc2-3)cn1` (stereo not shown) [compound 521], for which the pIC50 was more than 7.00 under setting [1] and 7.44 under setting [2].

Regarding `CN(C)C(=O)c1ccc2c(c1)-c1ccccc1C2(O)C(F)(F)F` (stereo not shown) [compound 44], the pIC50 by setting is: under setting [1], less than 6.00; under setting [2], less than 4.00.

Take `CNCCCOc1ccc2c(c1)C(O)(C(F)(F)F)c1ccccc1-2` (stereo not shown) [compound 332]: the pIC50 under setting [1] was 6.00 to 7.00 and the pIC50 under setting [2] is 6.04.

In the case of `Cc1cc(C(=O)N2CCC2)cc2c1-c1ccccc1C2(O)C(F)(F)F` (single isomer, unassigned) [compound 136], the pIC50 is more than 7.00 under setting [1] and 7.60 under setting [2].

Consider `CNc1cccc2c1-c1ccccc1C2(O)C(F)(F)F` (stereo not shown) [compound 85], for which the pIC50 is less than 6.00 under setting [1] and 4.64 under setting [2].

As for `CNC(=O)c1ccc(-c2ccc3c(c2)C(O)(C(F)(F)F)c2ccccc2-3)cc1Cl` (stereo not shown) [compound 240], the pIC50 is 6.00 to 7.00 under setting [1] and 6.83 under setting [2].

For the molecule `COc1cc(-c2cnn(C(C)(C)CC(=O)O)c2)c2c(c1)C(O)(C(F)(F)F)c1ccccc1-2` (single isomer, unassigned) [compound 614], the pIC50 was more than 7.00 under setting [3] and 7.43 under setting [2].

For the molecule `O=C(c1cc(-c2cncnc2)c2c(c1)C(O)(C(F)(F)F)c1ccccc1-2)N1CCCC1` (stereo not shown) [compound 370], the pIC50 reads like this: under setting [1], 6.00 to 7.00; under setting [2], 6.94.

For the molecule `Cc1noc(-c2ccc3c(c2)C(O)(C(F)(F)F)c2ccccc2-3)n1` (stereo not shown) [compound 247], the pIC50 is 6.00 to 7.00 under setting [1] and 6.26 under setting [2].

In the case of `O=C(c1cc(CO)c2c(c1)C(O)(C(F)(F)F)c1ccccc1-2)N1CCC1` (stereo not shown) [compound 556], the pIC50 was more than 7.00 under setting [1] and 7.28 under setting [2].

As for `NCCCOc1ccc2c(c1)C(O)(C(F)(F)F)c1ccccc1-2` (stereo not shown) [compound 331], the pIC50 is, setting by setting: under setting [1], less than 6.00; under setting [2], 5.85.

With `COC(=O)c1cc(Cl)cc2c1-c1ccccc1C2(O)C(F)(F)F` (single isomer, unassigned) [compound 617], the pIC50 runs as follows: under setting [3], more than 7.00; under setting [2], 7.08.

For the molecule `OC1(C(F)(F)F)c2ccccc2-c2ccc(-c3cc(Cl)cc(Cl)c3)cc21` (stereo not shown) [compound 266], the pIC50 reads like this: under setting [1], less than 6.00; under setting [2], 5.81.

`COC(=O)c1cc(Cl)c2c(c1)C(O)(C(F)(F)F)c1ccccc1-2` (stereo not shown) [compound 61]: the pIC50 by setting is: under setting [1], 6.00 to 7.00; under setting [2], 6.53.

For `CCOC(=O)c1ccccc1-c1ccc2c(c1)C(O)(C(F)(F)F)c1ccccc1-2` (stereo not shown) [compound 173], the pIC50 under setting [1] was less than 6.00 and the pIC50 under setting [2] is less than 5.00.

Take `OCc1cc(-c2cnn(CC3CCCCC3)c2)cc2c1-c1ccccc1C2(O)C(F)(F)F` (single isomer, unassigned) [compound 668]: the pIC50 is, setting by setting: under setting [3], more than 7.00; under setting [2], 7.77.

`CCCCCOc1ccc2c(c1)C(O)(C(F)(F)F)c1ccccc1-2` (stereo not shown) [compound 278]: the pIC50 reads like this: under setting [1], 6.00 to 7.00; under setting [2], 6.06.

With `O=C(COc1ccc2c(c1)C(O)(C(F)(F)F)c1ccccc1-2)NCCO` (stereo not shown) [compound 365], the pIC50 by setting is: under setting [1], less than 6.00; under setting [2], 5.88.

With `COC(=O)COC1CN(C(=O)c2ccc3c(c2)C(O)(C(F)(F)F)c2ccccc2-3)C1` (stereo not shown) [compound 115], the pIC50 by setting is: under setting [1], 6.00 to 7.00; under setting [2], 6.38.

As for `O=C(c1cc(Cl)c2c(c1)C(O)(C(F)(F)F)c1ccccc1-2)N1CC(CO)C1` (stereo not shown) [compound 330], the pIC50 under setting [1] is 6.00 to 7.00 and the pIC50 under setting [2] was 6.90.

Take `CC1CCN1C(=O)c1ccc2c(c1)C(O)(C(F)(F)F)c1ccccc1-2` (stereo not shown) [compound 90]: the pIC50 by setting is: under setting [1], 6.00 to 7.00; under setting [2], 6.32.

`OC1(C(F)(F)F)c2ccccc2-c2c(-c3cccnc3)cccc21` (stereo not shown) [compound 146]: the pIC50 reads like this: under setting [1], 6.00 to 7.00; under setting [2], 6.67.

On to `O=C(c1ccc2c(c1)C(O)(C(F)(F)F)c1ccccc1-2)N1CC(O)C1` (stereo not shown) [compound 79], for which the pIC50 is 6.00 to 7.00 under setting [1] and 6.16 under setting [2].

`OC1(C(F)(F)F)c2ccccc2-c2ccc(C3CCCCC3)cc21` (stereo not shown) [compound 169]: the pIC50 by setting is: under setting [1], less than 6.00; under setting [2], 5.13.

In the case of `CC(C)n1cc(-c2cc(CO)c3c(c2)C(O)(C(F)(F)F)c2ccccc2-3)cn1` (stereo not shown) [compound 621], the pIC50 was more than 7.00 under setting [3] and 7.19 under setting [2].

As for `CCOc1ccc2c(c1)C(O)(C(F)(F)F)c1ccccc1-2` (stereo not shown) [compound 89], the pIC50 was less than 6.00 under setting [1] and 5.67 under setting [2].

With `CNC(=O)Cn1cc(-c2cc(F)cc3c2-c2ccccc2C3(O)C(F)(F)F)cn1` (stereo not shown) [compound 515], the pIC50 is more than 7.00 under setting [1] and 7.42 under setting [2].

Take `OC1(C(F)(F)F)c2ccccc2-c2ncc(Cl)cc21` (stereo not shown) [compound 36]: the pIC50 under setting [1] was 6.00 to 7.00 and the pIC50 under setting [2] was 6.20.

As to `OC1(C(F)(F)F)c2ccccc2-c2c(Br)cc(Cl)cc21` (stereo not shown) [compound 272], the pIC50 was 6.00 to 7.00 under setting [1] and 6.47 under setting [2].

Consider `O=C(O)CCCOc1cc(-c2cn[nH]c2)c2c(c1)C(O)(C(F)(F)F)c1ccccc1-2` (stereo not shown) [compound 498], for which the pIC50 was more than 7.00 under setting [1] and 7.33 under setting [2].

Take `N#CCc1cc(Cl)cc2c1-c1ccccc1C2(O)C(F)(F)F` (stereo not shown) [compound 625]: the pIC50 runs as follows: (read-out: PDHK inhibitory activity (class symbol)) less than 6.00; under setting [2], less than 6.00.

On to `COC(=O)C1CCCN1C(=O)c1ccc2c(c1)C(O)(C(F)(F)F)c1ccccc1-2` (stereo not shown) [compound 167], for which the pIC50 is, setting by setting: under setting [1], less than 6.00; under setting [2], 5.71.

On to `O=C(O)CCn1cc(-c2ccc3c(c2)C(O)(C(F)(F)F)c2cccc(CO)c2-3)cn1` (stereo not shown) [compound 600], for which the pIC50 reads like this: (class symbol of IC50, read-out: PDHK inhibitory activity) less than 6.00; under setting [2], less than 6.00.

As to `OCCn1cc(-c2cc(CO)cc3c2-c2ccccc2C3(O)C(F)(F)F)cn1` (stereo not shown) [compound 620], the pIC50 is, setting by setting: under setting [3], more than 7.00; under setting [2], 7.19.

For `OC1(C(F)(F)F)c2ccccc2-c2ccc(F)cc21` (stereo not shown) [compound 4], the pIC50 is less than 6.00 under setting [1] and 5.64 under setting [2].

With `CN(C)C(=O)c1cccc(-c2ccc3c(c2)C(O)(C(F)(F)F)c2ccccc2-3)c1` (stereo not shown) [compound 158], the pIC50 was 6.00 to 7.00 under setting [1] and 6.66 under setting [2].

Take `CC(=O)NCCn1cc(-c2cccc3c2-c2ccccc2C3(O)C(F)(F)F)cn1` (stereo not shown) [compound 527]: the pIC50 is, setting by setting: under setting [1], more than 7.00; under setting [2], 7.10.

In the case of `CNC1CCN(C(=O)c2ccc3c(c2)C(O)(C(F)(F)F)c2ccccc2-3)C1` (stereo not shown) [compound 228], the pIC50 runs as follows: under setting [1], less than 6.00; under setting [2], 5.66.

As to `O[C@H]1CCN(CCOc2ccc3c(c2)C(O)(C(F)(F)F)c2ccccc2-3)C1` (stereo partly shown) [compound 389], the pIC50 is 6.00 to 7.00 under setting [1] and 6.09 under setting [2].

For `O=C(COc1ccc2c(c1)C(O)(C(F)(F)F)c1ccccc1-2)N1CCCC1` (stereo not shown) [compound 360], the pIC50 reads like this: under setting [1], 6.00 to 7.00; under setting [2], 6.26.

Consider `CCn1cc(-c2cc(C(C)=O)c3c(c2)C(O)(C(F)(F)F)c2ccccc2-3)cn1` (stereo not shown) [compound 587], for which the pIC50 was more than 7.00 under setting [1] and 7.68 under setting [2].

For `OC1(Cn2cc(-c3cc(F)cc4c3-c3ccccc3[C@]4(O)C(F)(F)F)cn2)CCCCC1` (stereo in doubt) [compound 544], the pIC50 is 7.66 (PDHK inhibitory activity IC50 (μmol/L)) and more than 7.00 under setting [1].

Consider `CC(=O)N(C)C1CCN(C(=O)c2ccc3c(c2)C(O)(C(F)(F)F)c2ccccc2-3)C1` (stereo not shown) [compound 246], for which the pIC50 is 6.00 to 7.00 under setting [1] and 6.09 under setting [2].

In the case of `CNC(=O)COC1CN(C(=O)c2ccc3c(c2)C(O)(C(F)(F)F)c2ccccc2-3)C1` (stereo not shown) [compound 117], the pIC50 was 6.00 to 7.00 under setting [1] and 6.04 under setting [2].

Turning to `O=C1CCCN1CCOc1cc(CO)c2c(c1)C(O)(C(F)(F)F)c1ccccc1-2` (stereo not shown) [compound 583], the pIC50 is, setting by setting: under setting [1], more than 7.00; under setting [2], 7.19.

Turning to `Cn1cc(-c2cc(OCCC34CC5CC(CC(O)(C5)C3)C4)cc3c2-c2ccccc2C3(O)C(F)(F)F)cn1` (single isomer, unassigned) [compound 540], the pIC50 by setting is: under setting [1], more than 7.00; under setting [2], 7.80.

As for `CC(C)=Cc1cc(-c2cnn(C(CO)CO)c2)c2c(c1)C(O)(C(F)(F)F)c1ccccc1-2` (single isomer, unassigned) [compound 664], the pIC50 by setting is: under setting [3], more than 7.00; under setting [2], 7.82.
